{
  "source": "patent US4512992A",
  "about": "“Treatment with dialkoxy pyridopyrimidine compounds” (Burroughs Wellcome Co., priority 1981, dated 1985)",
  "key": {"[1]": {"biological_target": "Histamine N-Methyltransferase (HMT) (Homo sapiens, UniProt P50135)", "sequence (P50135 whole entry, species assumed)": "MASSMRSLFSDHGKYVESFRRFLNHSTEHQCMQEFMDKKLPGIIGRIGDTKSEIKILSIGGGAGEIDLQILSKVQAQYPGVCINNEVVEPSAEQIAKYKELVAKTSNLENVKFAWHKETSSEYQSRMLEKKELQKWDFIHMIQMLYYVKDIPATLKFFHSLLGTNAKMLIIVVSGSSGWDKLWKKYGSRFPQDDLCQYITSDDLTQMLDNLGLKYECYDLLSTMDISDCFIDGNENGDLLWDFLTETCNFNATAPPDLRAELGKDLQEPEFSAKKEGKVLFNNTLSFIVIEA", "assay": "Inhibition of histamine N-methyltransferase (HMT)", "type": "biochemical", "method": "Inhibition of Histamine N-Methyltransferase\nThe effect of the test compounds used in Example 2 against HMT was determined. An inhibition of less than 20% was considered acceptable."}, "[2]": {"biological_target": "T1, mammalian dihydrofolate reductase (DHFR) (Rattus norvegicus, UniProt Q920D2)", "T1 construct": "DHFR partially purified from rat liver; from tissue; host or cells: rat liver", "T1 sequence (Q920D2 1-187)": "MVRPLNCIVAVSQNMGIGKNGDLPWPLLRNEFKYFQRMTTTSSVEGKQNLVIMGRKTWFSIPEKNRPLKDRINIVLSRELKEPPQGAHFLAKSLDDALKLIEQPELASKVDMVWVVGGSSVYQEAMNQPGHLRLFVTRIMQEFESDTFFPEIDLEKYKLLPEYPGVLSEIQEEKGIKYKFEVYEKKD", "assay": "Inhibition of mammalian dihydrofolate reductase (DHFR) partially purified from rat liver", "type": "biochemical", "method": "Inhibition of Mammalian Dihydrofolate Reductase (DHFR) by […]-5-methyl-6-benzylpyrido(2,3-d)pyrimidines\nThe inhibitory effect of the test compounds against DHFR partially purified from rat liver was determined. An IC50 of 5×10^-8 M or less is considered significant potency, an IC50 of 1×10^-8 M or less being particularly significant potency."}},
  "data": [
    {"smiles": "COc1ccc(Cc2cnc3nc(N)nc(N)c3c2C)cc1OC", "note": "[2,4-Diamino-6-(3,4-dimethoxybenzyl)-5-methylpyrido[2,3-d]pyrimidine]", "values": [
      {"measurement": "inhibitory activity against HMT (in words)", "setting": "[1]", "result": "acceptably low inhibitory activity against HMT"},
      {"measurement": "inhibitor of mammalian DHFR (in words)", "setting": "[2]", "result": "very potent inhibitor of mammalian DHFR"}
    ]}
  ]
}
